This note sets out measurements from US12195557B2, “Optimised compounds” (AXELIA ONCOLOGY PTY LTD, priority 2017, dated 2025).

Data set [1] relates to A/Udorn/307/72 (H3N2) influenza virus. It counts as in vivo, C57BL/6 mice. Particulars: n=5, day 5 (Example 4).
Data set [2] deals with T1, human TLR2 (Homo sapiens, UniProt O60603).
T1 construct: host or cells: HEK-Blue hTLR2 (HEK293-derived) cell line
Description: NF-kB activation in HEKBlue-hTLR2 cell line (SEAP reporter). It is filed as cell-based. The procedure: The potency of the compounds as activators of human and mouse TLR-2s was tested in an in vitro assay. The assay assesses NF-kB activation in the HEKBlue-mTLR-2 cell line. These cells have been stably transfected with mouse TLR-2 and express TLR-1 and TLR-6 endogenously at sufficient levels to allow for fully-functional TLR-1/2 and TLR-2/6 activation.
Toll-Like Receptor 2 (TLR2) stimulation is tested by assessing NF-kB activation in the HEKBlue-hTLR2 cell line. These cells have been stably transfected with human TLR2 and express TLR1 and TLR6 endogenously at a level sufficient to allow for fully-functional TLR1/2 and TLR2/6 activation. The activity of the test articles are tested on human TLR2 as potential agonists. The test articles are evaluated at seven concentrations and compared to control ligands. These steps are performed in triplicate.
Toll-Like Receptor 2 (TLR2) stimulation was tested by assessing N-kB activation in the HEK-Blue hTLR2 cell line. These cells have been stably transfected with human TLR2 and express TLR1 and TLR6 endogenously at a level sufficient to allow for fully-functional TLR1/2 and TLR2/6 activation. The activity of the test articles were tested on human TLR2 as potential agonists. The test articles were evaluated at seven concentrations and compared to control ligands (see list below). These steps were performed in triplicate.
The secreted embryonic alkaline phosphatase (SEAP) reporter is under the control of a promoter inducible by the transcription factor NF-κB. This reporter gene allows the monitoring of signaling through the TLR, based on the activation of NF-κB. In a 96-well plate (200 μL total volume) containing the appropriate cells (50,000-75,000 cells/well), 20 μL of the test article or the positive control ligand is added to the wells. The media added to the wells is designed for the detection of NF-κB induced SEAP expression. After a 20 hour incubation the optical density (OD) is read at 650 nm on a Molecular Devices SpectraMax 340PC absorbance detector.

Data set [3] can be described thus: in vitro. As to conditions: rat, hepatocytes.
For data set [4] the following is noted: human plasma, 37° C., 4 h time course.
Data set [5] in a line: in vitro. Particulars: rat, plasma.
Data set [6] is described as follows: in vitro. Particulars: cynomolgus monkey, hepatocytes.
For data set [7] the following is noted: dog plasma, 37° C., 4 h time course.
The nature of data set [8]: in vitro. As to conditions: human, hepatocytes.
A short description of data set [9]: in vitro. Particulars: dog, hepatocytes.
Data set [10] concerns the target T1, human TLR2. Description: NF-κB luciferase reporter assay in HEK293T cells transfected with human TLR2 plasmid. Particulars: dose range tested (12.2 pM to 3.125 pM), Example 9. It is filed as cell-based. The procedure:
Comparison of the abilities of various compounds to stimulate luciferase activity in an NF-κB cell-based reporter system was determined. Compounds tested include INNA-006 (or compound (1)); INNA-013 (or compound (4)); INNA-014 (or compound (3)); INNA-015 (or compound (2)); INNA-010; INNA-011 (or compound (5)); INNA-012 (or compound (6)); and INNA-009. HEK293T cells, transiently co-transfected with a human TLR2 plasmid and a luciferase-NF-κB plasmid reporter system, were exposed to various dilutions of each compound. Successful receptor binding and subsequent signal transduction events were determined by measuring the luminescence due to luciferase activity (results shown in FIG. 11—left to right columns for each concentration are in the following order INNA-006 (or compound (1)); INNA-013 (or compound (4)); INNA-014 (or compound (3)); INNA-015 (or compound (2)); INNA-010; INNA-011 (or compound (5)); INNA-012 (or compound (6)); and INNA-009.
Comparison of the in vitro TLR2 agonistic activity of Pam3Cys-Ser-PEG3000 and INNA-006: HEK293T cells, transiently co-transfected with a human TLR2 plasmid and a luciferase-NF-κB plasmid reporter system, were exposed to various dilutions of INNA-006 or Pam3Cys-Ser-PEG3000. […]

A short description of a further data set: Solubility in water. It is filed as physicochemical.

pEC50: −log10 of the molar value. Read-outs that look alike come from different tables or passages of the source. Residues, ends and D or L forms follow the SMILES beside them. *: point of attachment. X1 = CCCCCCCCCCCCCCCC(=O)OCC(C*)OC(=O)CCCCCCCCCCCCCCC Some results are limits rather than exact numbers.

T1 sequence (O60603 21-784): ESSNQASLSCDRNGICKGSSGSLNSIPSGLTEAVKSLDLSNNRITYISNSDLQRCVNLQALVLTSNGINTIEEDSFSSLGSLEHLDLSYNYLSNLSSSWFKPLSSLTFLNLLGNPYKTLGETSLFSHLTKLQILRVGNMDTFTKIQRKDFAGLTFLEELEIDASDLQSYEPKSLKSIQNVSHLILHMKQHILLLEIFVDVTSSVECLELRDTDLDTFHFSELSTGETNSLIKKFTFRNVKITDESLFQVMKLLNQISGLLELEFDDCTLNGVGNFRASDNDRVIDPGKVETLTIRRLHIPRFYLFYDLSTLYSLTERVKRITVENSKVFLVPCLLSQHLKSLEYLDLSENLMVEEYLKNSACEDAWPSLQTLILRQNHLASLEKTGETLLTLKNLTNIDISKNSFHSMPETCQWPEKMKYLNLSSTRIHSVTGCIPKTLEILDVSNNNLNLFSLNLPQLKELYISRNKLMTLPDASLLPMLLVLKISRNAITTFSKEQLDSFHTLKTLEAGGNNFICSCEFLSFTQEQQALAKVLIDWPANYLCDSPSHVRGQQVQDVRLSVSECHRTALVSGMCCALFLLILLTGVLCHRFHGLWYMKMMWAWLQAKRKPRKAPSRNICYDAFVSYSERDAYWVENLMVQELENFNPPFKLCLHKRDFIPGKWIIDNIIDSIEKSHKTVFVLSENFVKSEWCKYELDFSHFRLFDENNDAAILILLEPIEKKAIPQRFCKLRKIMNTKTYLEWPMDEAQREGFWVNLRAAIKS
T1 sequence (Q9Y2C9 32-796 partner): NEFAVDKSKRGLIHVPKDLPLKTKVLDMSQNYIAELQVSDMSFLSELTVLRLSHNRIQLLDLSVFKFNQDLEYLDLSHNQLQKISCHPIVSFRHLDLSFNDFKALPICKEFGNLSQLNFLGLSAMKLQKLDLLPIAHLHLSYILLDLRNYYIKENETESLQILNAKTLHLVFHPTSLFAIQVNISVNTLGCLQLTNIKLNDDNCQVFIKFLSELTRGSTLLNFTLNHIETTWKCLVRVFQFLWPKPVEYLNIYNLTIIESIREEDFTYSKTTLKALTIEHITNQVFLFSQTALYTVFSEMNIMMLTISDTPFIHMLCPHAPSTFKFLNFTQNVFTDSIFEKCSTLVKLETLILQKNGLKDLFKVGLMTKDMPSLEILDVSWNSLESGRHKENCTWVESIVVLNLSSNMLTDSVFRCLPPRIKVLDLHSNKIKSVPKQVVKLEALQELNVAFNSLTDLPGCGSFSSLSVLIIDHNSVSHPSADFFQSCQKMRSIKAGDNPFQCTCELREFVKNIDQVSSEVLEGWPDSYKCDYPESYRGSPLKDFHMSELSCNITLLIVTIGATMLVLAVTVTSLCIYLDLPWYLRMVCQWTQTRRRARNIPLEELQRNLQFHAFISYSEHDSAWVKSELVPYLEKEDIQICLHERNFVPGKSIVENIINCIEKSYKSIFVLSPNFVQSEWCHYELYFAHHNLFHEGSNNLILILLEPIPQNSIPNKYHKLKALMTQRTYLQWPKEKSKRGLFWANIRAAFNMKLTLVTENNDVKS

`CCCCCCCCCCCCCCCC(=O)OCC(CSCC(N)C(=O)NC(CO)C(=O)NC(CCCCN)C(=O)NC(CCCCN)C(=O)NC(CCCCN)C(=O)NC(CCCCN)C(=O)O)OC(=O)CCCCCCCCCCCCCCC` (stereo not drawn) [INNA-005, Pam2Cys—Ser—Lys—Lys—Lys—Lys, reference compound] (H-C(X1)SKKKK-OH; configuration not given here): the “progression of influenza virus to the lungs (lung viral titre)” value in data set [1] (0.005 nmoles intranasal 1 day prior to 500 pfu Udorn challenge), in [1] (0.1 nmoles intranasal 1 day prior to 500 pfu Udorn challenge) and in data set [1] (5 nmoles intranasal 1 day prior to 500 pfu Udorn challenge) was “partial inhibition” each time. Further, the “TLR2 activation, potency in words” value on human TLR2 [2] (Example 2) was “activated human TLR2”. For the same molecule, the negative logarithm of the EC50 (pEC50) (as a rule, the EC50 on a negative log10 scale, so that one unit is a factor of ten) at human TLR2 [2] (agonist activity against Human TLR-2 in vitro) was 11.43.
As to `CCCCCCCCCCCCCCCC(=O)OCC(CSC[C@H](N)C(=O)N[C@@H](CO)C(=O)NCCOCCOCCOCCOCCOCCOCCOCCOCCOCCOCCOCCOCCOCCOCCOCCOCCOCCOCCOCCOCCOCCOCCOCCOCCOCCOCCOCCOCCC(=O)NCC(N)=O)OC(=O)CCCCCCCCCCCCCCC` (stereo partly drawn) [INNA-011], the half-life – broadly, how long it takes for the measured level to halve – at 0.5 μM in “in vitro [3]” was more than 6.25 h; in the data set “in vitro [6]” it was 2.88 h; in “in vitro [8]”, 5.47 h; in the data set “in vitro [9]” it was 4.73 h. The hepatocyte CLint at 0.5 μM in the data set “in vitro [3]”, in “in vitro [6]”, in “in vitro [8]” and in “in vitro [9]” was not above 2 µL/min/1e6 cells each time. For the same molecule, the plasma half-life entry in data set [4] and in [7] was “could not be calculated due to insufficient degradation” throughout. Besides, the half-life in the data set “in vitro [5]” was 5.9 h.
Take Pam3Cys-Ser-PEG3000: the “ability to signal NF-κB compared with INNA-006” value on human TLR2 [10] is on record as “inferior to INNA-006”. Moreover, in “Solubility in water”, the solubility in water entry is on record as “readily soluble in water”.
